# Assays:
# N-Akt tumors = experiment: Control experiments: effect of tamoxifen or AAV-Cre on N-Akt tumor growth in control mice; type: in vivo, mouse; conditions: control mice with N-Akt tumors without floxed-gene deletion (C57BL/6, or Yap fl/fl;Taz fl/fl without SB-CreERT2)
# Description: (§1) For conditional deletion of Yap and Taz, tamoxifen was administered for 5 consecutive days, via intraperitoneal injection at a concentration of 1.6 mg/kg in corn oil. In order to activate the expression of TetON-Bcl2 or human YAP expression in Apo>hYAP^1SA mice, 0.2 mg/ml of doxycycline was diluted in filtered sterile drinking water supplemented with 2.5% sucrose and administered ad libido. Doxycycline containing water bottles were protected from light and replaced every other day.
# Adeno-associated virus serotype 8 (AAV8) expressing CRE recombinase under the hepatocyte specific promoter TBG was purchased from UPenn (AAV8.TBG.PI.Cre.rBG, catalog AV-8-PV1091). Mice received 5×10^11 GC of AAV8.TBG.PI.Cre.rBG diluted in 200 ul of 1× phosphate-buffered saline (PBS) by tail vein injection.
# (§2) All quantifications were performed using ImageJ software. Quantification of relative tumor area was done by measuring the tumor area (marked by HA-Akt positive cells in N-Akt model, phospho-ERK expression in Myc-Ras model or S100 expression in melanoma model) and the total area (marked by DAPI). […] We inferred absolute tumor load by multiplying the tumor area by the liver weight of each mouse (absolute tumor load (cm^3)=tumor area (cm)×liver weight (grams).
# [1] = tested on: N-Akt tumors (intrahepatic cholangiocarcinoma); experiment: N-Akt intrahepatic cholangiocarcinoma in Apo>hYAP1SA mice, doxycycline-induced hYAP1SA expression in peritumoral hepatocytes; type: in vivo, mouse
# Description: For intrahepatic delivery of the transposon system (Kang et al., 2011), eight to ten-week-old mice were secured and hydrodynamically injected with 1 μg pCMV/SB11, 4 μg pSBbi-puro-myrAKT-HA, 20 μg of pSBbi-puro-myc-NICD, or 10 μg of cMyc-IRES-NRas via lateral tail vein. For the expression of SB-Cre^ERT2 or inducible Bcl2, 15 μg of pSBbi-puro-Cre^ERT2 or 10 μg of pSBTetON—RH-Flag-Bcl2, respectively, were added to the plasmid mixture. All plasmids were diluted in sterile filtered 0.9% NaCl, and the total volume was adjusted to 10% (in ml) of the total body weight (in grams).
# as §1, §2
# We next tested whether overexpression of a constitutively active form of YAP (YAP^1SA; this is the YAP variant carrying the mutation Ser127Ala; see description hereinabove), due to mutation of the main Lats1/2 phosphorylation site, is sufficient to recapitulate the tumor regression caused by Lats1/2 deletion. We used transgenic mice that conditionally overexpressed human YAP^1SA in hepatocytes under the control of a doxycycline (Dox) inducible promoter (TetON system) and where the reverse tetracycline transactivator (rtTA) is expressed under the hepatocyte-specific ApoE promoter (hereafter Apo>hYAP^1SA)(Dong et al., 2007). Upon doxycycline feeding, Apo>hYAP^1SA mice induced hepatocyte proliferation and developed liver overgrowth as previously reported (FIG. 10A,B) (Dong et al. 2007). We then induced N-Akt tumors in Apo>hYAP^1SA mice and induced hYAP^1SA expression after 4 weeks of tumor development by adding doxycycline to their drinking water (FIG. 5A). As expected, YAP protein levels increased in doxycycline treated Apo>hYAP^1SA mice but not in non-treated Apo>hYAP^1SA mice or in doxycycline treated C57BL/6 mice (FIG. 10C). […]
# [2] = tested on: NRAS-mutant metastatic melanoma cells in the liver; experiment: NRas+/INK4a-/- melanoma liver metastases in Apo>hYAP1SA mice, doxycycline-induced hYAP1SA expression; type: in vivo, mouse; conditions: Apo>YAP1SA mice injected with 10.000 melanoma cells; 2 weeks after YAP activation by doxycycline in drinking water
# Description: For intrahepatic seeding of tumor cells, mice were hydrodynamically injected with 10.000 mouse melanoma cells (NRas^+/INK4a^−/−) diluted in sterile minimal essential medium (MEM), adjusted to 10% (in ml) of total body weight (in grams). All injected mice were monitored daily and sacrificed in groups at appropriate time points. All experimental and control groups contained 5 to 10 mice.
# as §1
# as §2, with “(grams). […]” for “(grams).”
# liver = conditions: mice, feeding for 5 days with 0.2% cholic acid; cited from earlier work
compound,measurement,setting,value
CC/C(=C(\c1ccccc1)c1ccc(OCCN(C)C)cc1)c1ccccc1 [tamoxifen],"effect on tumor development, growth or total tumor volume",N-Akt tumors,not affected
C[C@H]1c2cccc(O)c2C(=O)C2=C(O)[C@]3(O)C(=O)C(C(N)=O)=C(O)[C@@H](N(C)C)[C@@H]3[C@@H](O)[C@@H]21 [doxycycline],survival after tumor initiation,"[1]; Apo>hYAP1SA mice, two weeks of doxycycline administration",up to 14 weeks
same,average survival longer than the control mice,[1]; treated Apo>hYAP1SA mice,4 weeks
same,mice with only a few small tumor remnants,"[1]; treated Apo>hYAP1SA mice, after 2 weeks of doxycycline",5/10
same,treated mice still alive,"[1]; within 6 weeks of tumor initiation, when half of the control mice had died",more than 80%
same,reduction in tumor load,[2],98%
C[C@H](CCC(=O)O)[C@H]1CC[C@H]2[C@@H]3[C@H](O)C[C@@H]4C[C@H](O)CC[C@]4(C)[C@H]3C[C@H](O)[C@]12C [cholic acid],liver size increase,liver,30%
